In the supplement of paper PMC8967900:

Assays:
Assay in all cases: selective drug sensitivity score (sDSS, relative to normal bone marrow) (sDSS (score)); higher = more potent and effective on the cell line relative to normal bone marrow cells
Details in all cases: 72 h
ALL-PO = test system: ALL-PO
CCRF-HSB2 = test system: CCRF-HSB2
COG-LL-317 = test system: COG-LL-317
COG-LL-319h = test system: COG-LL-319h
COG-LL-332h = test system: COG-LL-332h
HAL-01 = test system: HAL-01
JURKAT = test system: JURKAT
KARPAS-45 = test system: KARPAS-45
LC4-1 = test system: LC4-1
MHH-CALL-3 = test system: MHH-CALL-3
MN-60 = test system: MN-60
MOLT-4 = test system: MOLT-4
NALL-1 = test system: NALL-1
P12-ICHIKAWA = test system: P12-ICHIKAWA
P30-OHKUBO = test system: P30-OHKUBO
PEER = test system: PEER
SEM cells = test system: SEM cells
SUP-B15 = test system: SUP-B15
TANOUE = test system: TANOUE
TMD5 = test system: TMD5
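Also: ALL cell lines in 384-well plates, five doses spanning 10,000-fold, each plate scaled between vehicle and 100 µmol/L benzalkonium chloride controls, sDSS an adapted area-under-curve metric.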

SMILES | selective drug sensitivity score (ALL-PO) | selective drug sensitivity score (CCRF-HSB2) | selective drug sensitivity score (COG-LL-317) | selective drug sensitivity score (COG-LL-319h) | selective drug sensitivity score (COG-LL-332h) | selective drug sensitivity score (HAL-01) | selective drug sensitivity score (JURKAT) | selective drug sensitivity score (KARPAS-45) | selective drug sensitivity score (LC4-1) | selective drug sensitivity score (MHH-CALL-3) | selective drug sensitivity score (MN-60) | selective drug sensitivity score (MOLT-4) | selective drug sensitivity score (NALL-1) | selective drug sensitivity score (P12-ICHIKAWA) | selective drug sensitivity score (P30-OHKUBO) | selective drug sensitivity score (PEER) | selective drug sensitivity score (SEM cells) | selective drug sensitivity score (SUP-B15) | selective drug sensitivity score (TANOUE) | selective drug sensitivity score (TMD5)
CCNc1nc(Nc2cc(F)c(C(=O)N3CCOCC3)cc2OC)ncc1C(F)(F)F [GNE-7915] (top concentration 1000 nM) | -0.06 | -0.06 | 0.34 | -0.06 | -0.06 | 1.04 | -0.06 | -0.06 | -0.06 | -0.06 | -0.06 | -0.06 | -0.06 | -0.06 | -0.06 | -0.06 | -0.06 | -0.06 | -0.06 | 5.44
COc1cc2ncnc(Nc3ccc(F)c(Cl)c3)c2cc1OCCCN1CCOCC1 [Gefitinib] (top concentration 10000 nM) | 4.16 | 6.16 | 0.36 | 5.66 | 2.56 | -0.14 | -1.44 | 3.36 | 1.16 | -2.94 | 0.66 | -0.34 | 1.06 | 0.96 | -0.04 | 2.76 | 0.66 | 1.56 | -1.84 | -2.14
CN1CC[C@@H](NC(=O)Nc2ccc(C#N)cc2)C[C@@H]1c1nc2ccccc2[nH]1 [Glasdegib] (top concentration 1000 nM) | 0 | 0 | 1.5 | 4.1 | 1 | 0 | 0 | 0 | 0 | 0.7 | 4.7 | 0 | 0.1 | 0 | 0 | 0 | 0 | 0 | 2.9 | 0.3
CN1CCN(C2CCN(C(=O)Nc3cc(Oc4ccc(NC(=O)C5(C(=O)Nc6ccc(F)cc6)CC5)c(F)c4)ccn3)CC2)CC1 [Golvatinib] (top concentration 2500 nM) | 3.16 | 2.96 | -0.14 | -0.14 | 0.86 | 0.76 | -0.14 | 0.76 | 2.46 | -0.14 | -0.14 | -0.14 | -0.14 | -0.14 | 0.56 | 2.46 | 6.56 | 3.56 | -0.14 | 0.76
CC(C)C[C@H](NC(=O)[C@@H](COC(C)(C)C)NC(=O)[C@H](Cc1ccc(O)cc1)NC(=O)[C@H](CO)NC(=O)[C@H](Cc1c[nH]c2ccccc12)NC(=O)[C@H](Cc1cnc[nH]1)NC(=O)[C@@H]1CCC(=O)N1)C(=O)N[C@@H](CCCNC(=N)N)C(=O)N1CCC[C@H]1C(=O)NNC(N)=O [Goserelin] (top concentration 10000 nM) | -0.06 | 0.04 | -0.06 | 4.84 | -0.06 | -0.06 | -0.06 | -0.06 | -0.06 | -0.06 | -0.06 | -0.06 | -0.06 | -0.06 | -0.06 | -0.06 | -0.06 | -0.06 | -0.06 | -0.06
O=S(=O)(c1cccc2c(O)nccc12)N1CCCNCC1 [Hydroxyfasudil] (top concentration 19000 nM) | -0.92 | 0.98 | -0.22 | -0.72 | -0.82 | 1.38 | -0.92 | 0.48 | -0.92 | 3.88 | -0.92 | -0.72 | 2.58 | -0.92 | -0.52 | 0.08 | 0.08 | -0.52 | -0.92 | 5.68
COc1cc(C(=O)O)ccc1NC(=O)[C@@H]1N[C@@H](CC(C)(C)C)[C@](C#N)(c2ccc(Cl)cc2F)[C@H]1c1cccc(Cl)c1F [Idasanutlin] (top concentration 10000 nM) | -12.5 | 15.5 | 28.4 | 17 | 14.5 | 19.1 | -7.74 | -8.34 | 19.1 | 21.9 | 0.46 | 20.7 | -8.44 | -11.5 | 20.8 | -9.04 | -10 | 29.3 | -12.5 | 12.6
CCN1CCN(c2ccc(Nc3cc(N(C)C(=O)Nc4c(Cl)c(OC)cc(OC)c4Cl)ncn3)cc2)CC1 [Infigratinib] (top concentration 1000 nM) | 0 | 0 | 0 | 0 | 0 | 0 | 0 | 0 | 0 | 0 | 0 | 0 | 0 | 0 | 0 | 0 | 0 | 0 | 0 | 0
